Reference: US20110086884A1, “BARIUM SALT OF BENZIMIDAZOLE DERIVATIVE” (priority 2003, published 2011)

Test: hygroscopicity of the solid salt
Type: physicochemical
Details: both crystalline and amorphous forms

- hygroscopicity: non-hygroscopic
Compound: COc1ccc2[nH]c([S@@+]([O-])Cc3ncc(C)c(OC)c3C)nc2c1 [(S)-omeprazole barium, (S)-5-methoxy-2-[[(4-methoxy-3,5-dimethyl-2-pyridinyl)-methyl]sulfinyl]-1H-benzimidazole]
